Laboratory results from ChEMBL document CHEMBL1136540, “Discovery of selective phosphonamide-based inhibitors of tumor necrosis factor-alpha converting enzyme (TACE)” (Bioorg Med Chem Lett, 2003).

How the values were obtained:
[1] = target: T1, Stromelysin-1 (Homo sapiens, UniProt P08254); test: Inhibition of recombinant human Matrix metalloprotease-3
Target sequence in this assay (P08254 whole entry): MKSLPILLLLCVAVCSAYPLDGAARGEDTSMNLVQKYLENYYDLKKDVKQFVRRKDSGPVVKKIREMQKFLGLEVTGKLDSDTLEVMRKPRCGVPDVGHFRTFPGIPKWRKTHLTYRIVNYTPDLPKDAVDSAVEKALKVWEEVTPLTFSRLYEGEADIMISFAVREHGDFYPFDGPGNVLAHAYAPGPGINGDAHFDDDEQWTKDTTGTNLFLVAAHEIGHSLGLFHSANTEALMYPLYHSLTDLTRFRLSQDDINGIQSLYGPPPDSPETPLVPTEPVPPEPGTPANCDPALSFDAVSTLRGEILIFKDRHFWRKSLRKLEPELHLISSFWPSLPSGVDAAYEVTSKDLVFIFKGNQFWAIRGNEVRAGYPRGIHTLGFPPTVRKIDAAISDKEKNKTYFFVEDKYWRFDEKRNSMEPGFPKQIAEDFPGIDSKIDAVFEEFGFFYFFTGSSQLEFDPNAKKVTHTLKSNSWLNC

[2] = target: T2, Matrix metalloproteinase-9 (Homo sapiens, UniProt P14780); test: Inhibition of recombinant human Matrix metalloprotease-9
[3] = target: T3, Interstitial collagenase (Homo sapiens, UniProt P03956); test: Inhibition of recombinant human Matrix metalloprotease-1
T3 sequence (P03956 whole entry): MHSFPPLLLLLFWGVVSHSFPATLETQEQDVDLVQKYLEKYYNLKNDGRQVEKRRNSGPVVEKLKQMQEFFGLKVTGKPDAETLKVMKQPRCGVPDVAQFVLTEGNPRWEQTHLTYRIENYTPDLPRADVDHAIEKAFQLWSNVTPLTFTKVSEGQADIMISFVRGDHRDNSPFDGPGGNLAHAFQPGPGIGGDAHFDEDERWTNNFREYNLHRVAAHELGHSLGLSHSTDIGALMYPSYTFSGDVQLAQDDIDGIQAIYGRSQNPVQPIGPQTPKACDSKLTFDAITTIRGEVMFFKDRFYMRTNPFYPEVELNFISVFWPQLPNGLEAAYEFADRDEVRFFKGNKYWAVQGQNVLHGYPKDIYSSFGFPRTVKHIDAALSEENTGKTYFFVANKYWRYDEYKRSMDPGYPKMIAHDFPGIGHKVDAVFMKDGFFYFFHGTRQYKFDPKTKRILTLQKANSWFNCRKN

[4] = target: T4, Disintegrin and metalloproteinase domain-containing protein 17 (Homo sapiens, UniProt P78536); test: Inhibition of recombinant human tumor necrosis factor-alpha converting enzyme
T4 sequence (P78536 whole entry, the tested form may be a part): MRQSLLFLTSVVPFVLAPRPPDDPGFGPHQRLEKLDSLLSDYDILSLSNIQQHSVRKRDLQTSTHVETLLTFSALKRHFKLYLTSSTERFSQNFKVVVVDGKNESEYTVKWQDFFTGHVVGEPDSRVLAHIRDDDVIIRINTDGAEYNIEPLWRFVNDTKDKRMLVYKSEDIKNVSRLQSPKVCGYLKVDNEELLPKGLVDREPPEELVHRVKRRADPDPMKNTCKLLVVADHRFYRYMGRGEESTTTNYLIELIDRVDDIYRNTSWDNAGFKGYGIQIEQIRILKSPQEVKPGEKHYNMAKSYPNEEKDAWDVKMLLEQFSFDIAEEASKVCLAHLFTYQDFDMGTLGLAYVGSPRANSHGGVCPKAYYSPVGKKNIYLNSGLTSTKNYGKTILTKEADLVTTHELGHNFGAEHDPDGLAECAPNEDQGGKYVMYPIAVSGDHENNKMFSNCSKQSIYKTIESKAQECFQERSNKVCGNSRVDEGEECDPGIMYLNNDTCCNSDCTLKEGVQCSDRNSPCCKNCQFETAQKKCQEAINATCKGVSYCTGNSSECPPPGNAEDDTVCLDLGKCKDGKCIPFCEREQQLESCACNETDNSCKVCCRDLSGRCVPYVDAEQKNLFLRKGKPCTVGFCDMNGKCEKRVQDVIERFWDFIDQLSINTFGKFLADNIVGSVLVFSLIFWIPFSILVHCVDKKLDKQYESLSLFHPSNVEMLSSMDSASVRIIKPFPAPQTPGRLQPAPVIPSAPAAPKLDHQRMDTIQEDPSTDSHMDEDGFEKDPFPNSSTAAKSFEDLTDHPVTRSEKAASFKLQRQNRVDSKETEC

[5] = target: T3, Interstitial collagenase; test: Inhibition of recombinant human matrix metalloprotease-1
[6] = target: T1, Stromelysin-1; test: Inhibition of recombinant human Matrix metalloprotease-3 at 1000 nM
Target sequence in this assay (P08254 100-477 limits assumed): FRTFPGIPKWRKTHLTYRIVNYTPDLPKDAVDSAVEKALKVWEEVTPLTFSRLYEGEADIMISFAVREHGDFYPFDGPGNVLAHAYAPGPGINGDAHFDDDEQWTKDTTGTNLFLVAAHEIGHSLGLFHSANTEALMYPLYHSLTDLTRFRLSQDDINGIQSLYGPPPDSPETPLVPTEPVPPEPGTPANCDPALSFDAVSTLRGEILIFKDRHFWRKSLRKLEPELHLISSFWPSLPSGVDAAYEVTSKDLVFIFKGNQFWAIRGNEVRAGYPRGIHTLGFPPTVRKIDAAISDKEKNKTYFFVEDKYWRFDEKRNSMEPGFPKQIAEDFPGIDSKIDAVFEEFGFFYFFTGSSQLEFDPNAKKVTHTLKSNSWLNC

[7] = target: T5, Interstitial collagenase (Homo sapiens) (UniProt P03956); test: Inhibition of recombinant human Matrix metalloprotease-1 at 1000 nM
T5 sequence (whole entry): T3 sequence (P03956 whole entry)

[8] = target: T2, Matrix metalloproteinase-9; details: 1000 nM
Description: Inhibition of recombinant human Matrix metalloprotease-9 at 1000 nM

[9] = target: T4, Disintegrin and metalloproteinase domain-containing protein 17; details: 1000 nM
Description: Inhibition of recombinant human TACE at 1000 nM

[10] = target: T5, Interstitial collagenase (Homo sapiens); test: Inhibition of recombinant human matrix metalloprotease-1 at 1000 nM

T2 sequence (P14780 whole entry): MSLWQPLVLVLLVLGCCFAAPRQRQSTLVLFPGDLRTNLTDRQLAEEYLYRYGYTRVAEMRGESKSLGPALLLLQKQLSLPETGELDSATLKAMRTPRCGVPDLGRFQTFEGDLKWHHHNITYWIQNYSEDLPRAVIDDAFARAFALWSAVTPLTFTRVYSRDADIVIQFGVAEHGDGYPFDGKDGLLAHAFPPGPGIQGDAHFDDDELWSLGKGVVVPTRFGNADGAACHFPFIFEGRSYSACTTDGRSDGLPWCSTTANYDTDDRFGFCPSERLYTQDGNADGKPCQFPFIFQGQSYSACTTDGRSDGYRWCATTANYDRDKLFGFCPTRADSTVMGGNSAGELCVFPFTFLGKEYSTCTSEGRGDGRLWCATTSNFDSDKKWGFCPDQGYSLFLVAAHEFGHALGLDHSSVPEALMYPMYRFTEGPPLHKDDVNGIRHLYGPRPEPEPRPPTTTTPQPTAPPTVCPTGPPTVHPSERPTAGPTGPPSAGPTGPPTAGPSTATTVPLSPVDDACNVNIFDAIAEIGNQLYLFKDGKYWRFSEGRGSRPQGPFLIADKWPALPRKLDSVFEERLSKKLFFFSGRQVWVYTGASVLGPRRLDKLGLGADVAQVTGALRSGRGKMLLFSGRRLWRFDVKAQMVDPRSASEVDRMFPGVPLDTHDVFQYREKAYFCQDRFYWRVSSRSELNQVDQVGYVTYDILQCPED

SMILES | Ki [1] [nM] | Ki [2] [nM] | Ki [3] [nM] | Ki [4] [nM] | Ki [5] [nM] | inhibition [6] [%] | inhibition [7] [%] | inhibition [8] [%] | inhibition [9] [%] | inhibition [10] [%]
CCOP(=O)(N[C@H](CC(C)C)C(=O)NO)c1ccc(OC)cc1 (stereo partly specified) | 69.8 | 165 | 196 | 5.06 | – | – | – | – | – | –
CCOP(=O)(N[C@H](CCC(=O)NCCc1ccccc1)C(=O)NO)c1ccc(OC)cc1 (stereo partly specified) | 7.29 | 23.7 | – | 27.6 | 40.4 | – | – | – | – | –
CCOP(=O)(c1ccc(OC)cc1)N1Cc2ccccc2C[C@H]1C(=O)NO (single isomer, unassigned) | – | – | – | – | – | 9 | 26 | 18 | 41 | –
CCOP(=O)(N[C@@H](CCC(=O)NCCc1ccccc1)C(=O)NO)c1ccc(OC)cc1 (stereo partly specified) | – | – | – | 10 | – | 47 | – | 24 | – | 27
CCOP(=O)(c1ccc(OC)cc1)N1Cc2ccccc2C[C@@H]1C(=O)NO (single isomer, unassigned) | – | – | – | 7.15 | – | – | – | – | – | –
CCOP(=O)(N[C@@H](CC(C)C)C(=O)NO)c1ccc(OC)cc1 (stereo partly specified) | – | – | – | 76.4 | – | 17 | – | 17 | – | 10
